Source: US20220411397A1, “ANALOGUES OF N-ACYL-HOMOSERINE LACTONES AND PHARMACEUTICAL COMPOSITION COMPRISING SAME” (SORBONNE UNIVERSITE, priority 2019, published 2022)

Assays:
Type in all cases: cell-based
LasR receptor = target: T1, LasR receptor (Pseudomonas aeruginosa, UniProt P25084); test: Activation of the LasR receptor on bacterial reporter strain E. coli pSB1075 (bioluminescence)
T1 construct: expressed in transfected cells; host or cells: Escherichia coli carrying plasmid pSB1075
Source text: 1.1.3. The Bacterial Reporter Strain E. coli pSB1075 • A bacterial reporter strain of the Quorum Sensing was used to study the ability of the molecules to be recognized by the Pseudomonas aeruginosa AHL receptor (LasR) and induce an activation. […] This bioluminescent strain was modified by addition of a plasmid pSB1075. This plasmid contains genes encoding both tetracycline resistance and the expression of the LasR AHL receptor from the Pseudomonas aeruginosa bacteria, as well as a fusion gene derived from the LasR promoter and the luxCDABE gene from Photorhabdus luminescence. The bacterial strain was grown in the LB medium supplemented with 5 μg/ml tetracycline to exert a selection pressure and ensure that only the desired strain was amplified. The fusion gene included in the plasmid gives the bacteria the ability to emit a bioluminescence when the LasR receptor is activated, and provides the user with a robust test for the molecular screening. […] On day 1, the culture was diluted 1:100 (P1) in 10 ml of LB medium supplemented with 5 μg/ml tetracycline and maintained for 24 hours at 37° C. under stirring at 70 rpm. On day 2, the experiment took place: a bacterial suspension extemporaneously diluted 1:10 in LB medium supplemented with 5 μg/ml tetracycline (P2) was dispensed into a black opaque 96-well plate and incubated for 4 hours with a range of AHL concentrations or controls until the resulting luminescence was read at the end point. All experiments were performed in triplicates.
1.3. […] This bioluminescent strain was developed by the addition of a plasmid pSB1075 containing genes encoding the tetracycline resistance and the expression of the LasR AHL receptor, as well as a fusion gene of the LasR promoter and the luxCDABE gene of Photorhabdus luminescence. • On day 1, a 1/100 dilution of the bacterial strain (P1) was grown for 24 hours at 37° C. under stirring (70 rpm) in a LB medium containing 5 μg/ml tetracycline (pressure selective). On day 2, P1 was diluted 1:10 in the same medium to obtain P2. In a black 96-well plate were placed 200 μL of P2 and 10 μL of the short chain compound (medium, water and DMSO for the negative controls, C4-HSL as positive control, and the test sample at the desired concentration). The plate was incubated for 4 hours at 37° C. under stirring at 70 rpm. […] After that, the incubation was continued according to the conventional protocol, with the test compound at the desired concentrations.

Caco-2/TC7 cells = test: Cytotoxicity test, LDH secretion, Caco-2/TC7; settings: for cytotoxicity (LDH), Caco-2/TC7: stimulated, low concentrations; for LDH secretion at the higher concentrations: ≥50 μM
Method: (§1) 1.2.6. […] To measure the concentration of LDH in the cell lysate, 800 μL of NADH was added to 10 μL of […] and 190 μL of 0.1 M PBS in a plastic cuvette, and the decrease in the absorbance at 340 nm was monitored for 1 min. […] The percentage of cytotoxicity could be established with the formula: […]
(§2) The cytotoxicity of the tested and control compounds was evaluated using a measurement test of the LDH (Lactate Dehydrogenase) secretion. This test is based on the measurement of the amount of LDH secreted by the cells in their supernatant, compared to the amount of LDH that will remain in the intracellular compartment. This ratio provides an indication of the membrane damage suffered by the cells, and thus of the cytotoxicity of the compound.
(§3) Two methods were used to perform this test: the measurement using an extemporaneously prepared pyruvate/NADH solution, or using the Cytotoxicity Detection Kit^PLUS(LDH) from the manufacturer Roche (Sigma-Aldrich).
(§4) Pyruvate/NADH method: pyruvate/NADH solution prepared with 4.1 mg pyruvic acid (0.62 mM) and 7.7 mg NADH (0.18 mM) in 60 ml of 0.1M PBS (pH 7.4).
(§5) For the measurement of the LDH concentration in the supernatants, 800 μL of NADH was added to 200 μL of supernatant in plastic spectrometry cuvettes, and the decrease in absorbance of the final solution was read at 340 nm for 1 min. For the measurement of the LDH concentration in the cell lysates, 800 μL of NADH was added to 10 μL of cell lysates and 190 μL of 0.1M PBS in plastic spectrometry cuvettes, and the decrease in absorbance of the final solution was read at 340 nm for 1 min. The percentage of LDH secreted was then calculated by the ratio of the decay slopes of the absorbance of the supernatants and of the cell lysates (respectively).
(§6) Cytotoxicity Detection Kit^PLUS (LDH) method: absorbance test performed according to the manufacturer's instructions. The percentage of LDH secreted was then calculated by the formula: […]

Raw264.7 murine cells = test: Cytotoxicity test, LDH secretion, Raw264.7; settings: for cytotoxicity (LDH), Raw264.7: stimulated, low concentrations
Method: as §1, §2, §3, §4, §5, §6

[1] = any of the concentrations tested

T1 sequence (P25084 whole entry): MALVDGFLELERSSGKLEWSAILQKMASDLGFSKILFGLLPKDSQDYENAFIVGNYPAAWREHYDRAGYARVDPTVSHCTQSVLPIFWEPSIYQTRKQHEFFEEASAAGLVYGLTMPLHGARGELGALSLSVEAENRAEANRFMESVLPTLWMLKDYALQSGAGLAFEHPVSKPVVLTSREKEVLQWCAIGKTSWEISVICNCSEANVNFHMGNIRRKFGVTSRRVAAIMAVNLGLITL

Structure (SMILES) | EC50 (LasR receptor) [µM] | cytotoxicity (LDH), Caco-2/TC7 (Caco-2/TC7 cells) | LDH secretion at the higher concentrations (Caco-2/TC7 cells) | cytotoxicity (LDH), Raw264.7 (Raw264.7 murine cells) | LDH secretion (Caco-2/TC7 cells; Caco-2/TC7, at 100 μM) [%] | toxicity (LDH), Raw264.7 (Raw264.7 murine cells; at 50 μM) | LDH secreted compared with the diastereomer, Raw264.7 (Raw264.7 murine cells; at all concentrations) | toxicity (LDH), Caco-2/TC7 (Caco-2/TC7 cells; [1]) | toxicity (LDH), Raw264.7 (Raw264.7 murine cells; [1])
CCCCCCCCCC(=O)CC(=O)N[C@H]1CCCC[C@@H]1O [I-2, N-[(1S,2S)-2-hydroxycyclohexyl]-3-oxo-dodecanamide] | 0.165 | not cytotoxic at low concentrations | not as significant | not cytotoxic at low concentrations | – | – | – | – | –
CCCCCCCCCC(=O)CC(=O)N[C@H]1CCCC[C@H]1O [I-4, N-[(1S,2R)-2-hydroxycyclohexyl]-3-oxo-dodecanamide] | 200 | not cytotoxic at low concentrations | an increase in LDH secretion | not cytotoxic at low concentrations | 9 | toxic | greater than that secreted in the presence of (S,S)-3oxoC12-ACH | – | –
CCCCCCCCCC(=O)CC(=O)Nc1cc(Cl)ccc1O [I-6, N-(5-chloro-2-hydroxyphenyl)-3-oxododecanamide] | > 1000 | – | – | – | – | – | – | not toxic | not toxic
